# Assay results as given in patent US20240417798A1, “THERAPY SELECTION AND TREATMENT OF NEURODEGENERATIVE DISORDERS” (Anavex Life Sciences Corp., priority 2021, published 2024).
# Assays:
# [1] = system: gene clusters (Cluster 1, Cluster 2) of neurodegenerative pathways; assay: Whole Blood Transcriptomics Analysis (RNAseq) of PDD patients, baseline vs Week 14, WGCNA gene clusters and pathway analysis; type: in vivo, human
# Method: In order to gain insights into ANAVEX 2-73 response pathways, during the Phase 2 study, patients' DNA and RNA sequencing were analyzed. Transcriptomic samples of 65 patients enrolled in either High Dose or Mid Dose arms were collected at baseline and at the end of treatment (Week 14). The expression of 14,150 genes was measured. No transformation was applied to the TPM values. Values associated with a with RIN≤4.0 were discarded. The actual dose of ANAVEX 2-73 (blarcamesine) that was given to each patient during the trial was assessed and integrated into the database. […]
# The genes were clustered together using WGCNA, starting from their correlation of TPM expression values across samples. […] For each cluster, the contrast ActualDose, i.e. treated vs placebo were evaluated across all timepoints. […] The ratio between cluster size and number of pathways was calculated, and top 2 clusters were retained for further Analysis. […] Known interactions between the genes of the cluster were assessed using STRING database with the parameters of Edge score >0.150, and no text mining edges. […]
# Whole Blood Transcriptomics Analysis (RNAseq) of patients with Parkinson's disease dementia (PDD) was performed for the ANAVEX®2-73-PDD-001 study (FIG. 1) at two timepoints: Baseline and Week 14 (end of trial). All available RNA samples with […] (RNA integrity number, using 130 samples) were analyzed. […]
# [2] = molecular target: T1, Sigma-1 receptor (SIGMAR1) (Homo sapiens, UniProt Q99720); settings: quantitative PET scan; cited from earlier work
# T1 construct: host or cells: in vivo PET scan
# [3] = system: patients with Parkinson's Disease Dementia (PDD); settings: previously reported results; cited from earlier work
# SIGMAR1 = SIGMAR1 levels in patients of the PDD-001 trial; type: in vivo, human; settings: use by PDD patients; rise associated with improved attention measures and reduced MDS-UPDRS total and Part III
# Method: The trial enrolled 132 adults, ages 50-85, with PDD, and was successfully concluded in September 2020. Participants, recruited at multiple sites in Spain and Australia, were randomly assigned to one of two doses groups (with an escalating ANAVEX 2-73 dose up to 30 or 50 mg oral capsules) or to a placebo, once daily for 14 weeks (see FIG. 1 for details). The trial's main goals were to assess the therapy's safety and changes in patients' cognitive function, measured using the cognitive drug research computerized assessment system—a test that looks at multiple cognitive skills, such as choice reaction time (choosing between similar objects), vigilance, and episodic memory (remembering new personal experiences or shared information). Secondary goals included changes in patients' motor abilities—assessed with the Movement Disorders Society Unified Parkinson's Disease Rating Scale (MDS-UPDRS) Part III—and sleep quality. […] This sleep disorder is associated with greater cognitive impairment and a higher risk of dementia. […] After 14 weeks, the MDS-UPDRS total score dropped by 10.98 points (indicating an easing in disease severity) in the high-dose group and rose by 3.53 points in the placebo group. This represented an adjusted mean improvement of 14.51 points—surpassing the established, clinically meaningful 7.1 point-cut-off—and a relative improvement of 18.9% over 14 weeks. […]
# [4] = system: patients with Parkinson's Disease Dementia (PDD); assay: Phase 2 ANAVEX2-73-PDD-001 study, randomized, double blind, placebo-controlled, oral capsules once daily for 14 weeks; type: in vivo, human
# Method: In order to assess the safety, tolerability and efficacy of ANAVEX®2-73 (blarcamesine) oral capsules in treating cognitive impairment in patients with Parkinson's Disease with Dementia (PDD), a phase 2 study, coded “ANAVEX®2-73-PDD-001 study” (FIG. 1), was conducted. The study was multi-center, randomized, double blind, placebo-controlled, parallel group with 3-arm. The study included a 2-week Screening/Baseline Observation Period and a 14-week Treatment Period (including a 2 week Titration Period), and a 2-week Safety Follow-Up Period. A total of 132 patients were enrolled in the study and were randomly assigned to three testing arms (FIG. 1). In ANAVEX2-73 High Dose arm, 44 patients were given oral capsules of ANAVEX2-73 once daily in an escalating dose of 10 mg, 20 mg, 30 mg and 50 mg. In ANAVEX2-73 Mid Dose arm, 44 patients were given oral capsules of ANAVEX2-73 once daily in an escalating dose of 10 mg, 20 mg, and 30 mg. In placebo group, 44 patients were given placebo capsules. Outcome measures included Cognitive Drug Research (CDR) Computerized Assessment System on Continuity of Attention; Change from Baseline to End of Treatment in Continuity of Attention as measured by Cognitive Drug Research (CDR) Computerized Assessment System Continuity of Attention; Number of participants with treatment-related adverse events as assessed by CTCAE v4.0 [Time Frame: 14 weeks]; Assessment of the safety and tolerability of ANAVEX2-73 compared to placebo; MDS-UPDRS Part III Total Score (Motor Scores); Change from baseline to End of Treatment as measured by MDS-UPDRS Part III Total Score (Motor Scores); SDS-CL-25 [Time Frame: 14 weeks]; Incidence of sleep disorders symptoms (SDS-CL-25); and DNA/RNA Sequencing.
# The trial enrolled 132 adults, ages 50-85, with PDD, and was successfully concluded in September 2020. Participants, recruited at multiple sites in Spain and Australia, were randomly assigned to one of two doses groups (with an escalating ANAVEX 2-73 dose up to 30 or 50 mg oral capsules) or to a placebo, once daily for 14 weeks (see FIG. 1 for details). The trial's main goals were to assess the therapy's safety and changes in patients' cognitive function, measured using the cognitive drug research computerized assessment system—a test that looks at multiple cognitive skills, such as choice reaction time (choosing between similar objects), vigilance, and episodic memory (remembering new personal experiences or shared information). Secondary goals included changes in patients' motor abilities—assessed with the Movement Disorders Society Unified Parkinson's Disease Rating Scale (MDS-UPDRS) Part III—and sleep quality. […] This sleep disorder is associated with greater cognitive impairment and a higher risk of dementia. […]
# T1 sequence (Q99720 whole entry, species assumed): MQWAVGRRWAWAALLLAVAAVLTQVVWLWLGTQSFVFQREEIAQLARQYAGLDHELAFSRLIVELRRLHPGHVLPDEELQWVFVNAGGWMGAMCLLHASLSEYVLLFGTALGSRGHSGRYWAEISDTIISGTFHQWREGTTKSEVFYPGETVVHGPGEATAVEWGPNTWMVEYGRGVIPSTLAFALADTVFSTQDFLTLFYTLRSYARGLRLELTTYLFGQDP
smiles,measurement,setting,value
"CN(C)CC1CCOC1(c1ccccc1)c1ccccc1.Cl (centres unmarked) [ANAVEX 2-73, tetrahydro-N, N-dimethyl-2,2-diphenyl-3-furanmethanamine hydrochloride]","Expression of both identified gene clusters, treated patients compared to placebo",[1]; after 14 weeks of treatment,up-regulated
same,"Dysregulations of Cluster 1 and Cluster 2, link to dose","[1]; linear mixed effect model, Dunnett's test",significantly linked to the highest dose
same,Direct occupancy at SIGMAR1,[2],has been established
same,Cognitive skills,[3],significantly improved several cognitive skills
same,REM sleep behavior disorder,[3],lessened REM sleep behavior disorder
same,Safety,[3],generally safe
same,SIGMAR1 levels,SIGMAR1,significant increase in SIGMAR1 levels
same,"Cognitive and sleep benefits, current trial data",[4]; data obtained from the current trial,confirmed these cognitive and sleep benefits
same,"MDS-UPDRS total score, adjusted mean improvement vs placebo","[4]; high dose (50 mg), 14 weeks, clinically meaningful cut-off 7.1 points",14.51 points
same,"MDS-UPDRS total score, relative improvement","[4]; high dose (50 mg), over 14 weeks",18.9%
same,"MDS-UPDRS total score, drop from baseline (easing in disease severity)","[4]; high-dose group (50 mg), after 14 weeks",10.98 points
